In PMC12730265, “Combinatorial Antimicrobial Effects of Imidazolium-Based Ionic Liquids and Antifungals on Model Fungal Organisms” (Biomolecules, 2025):
Like-named read-outs stand apart in the source and are kept apart here. Each block holds one compound with its values, some of them ahead of it.

What was measured:
S. pombe = assay: MIC50 by microbroth dilution; assay type: cell-based; conditions: Schizosaccharomyces pombe
Experimental: (§1) A single colony was picked from each streak to prepare overnight in 5 mL fresh YPD broth and placed into a tilted rotating incubator set at 30 °C and 40 rpm overnight. After ~16–20 h, a fresh dilution in media (1:200) was made and used for the experiment. […] Finally, diluted culture was added to each well of a sterile 96-well plate containing serially diluted aliquots of each RTIL to a total volume of 100 µL. The plate was incubated at 30 °C overnight with shaking for 24 and 48 h. At both timepoints, the yeast was manually resuspended in the plate by pipetting and we measured the OD600 using a Spectramax M5 multimode plate reader (Molecular Devices, San Jose, CA, USA).
(§2) The four species of yeast tested included three common lab strains of non-pathogenic yeast strains, S. boulardii, S. cerevisiae, and S. pombe, and one common human pathogen, C. albicans.

C. albicans = assay: MIC50 by microbroth dilution; assay type: cell-based; conditions: Candida albicans, 48 h
Experimental: as §1, §2

S. boulardii = assay: MIC50 by microbroth dilution; assay type: cell-based; conditions: Saccharomyces cerevisiae
Experimental: as §1, §2

S. cerevisiae [1] = assay: MIC50 by microbroth dilution; assay type: cell-based; conditions: Saccharomyces cerevisiae
Experimental: as §1, §2

HeLa cells = assay: Checkerboard cytotoxicity assay IL + Clotrimazole, CellTiter-Blue
Experimental: HeLa cells (Kyoto line) were grown at 37 °C in 5% CO2 using DMEM media with 4.5 g/L glucose + Sodium Pyruvate + L-Glutamine (VWRV02-0101) with 10% FBS. Antibiotics such as Pen/Strep were not used during treatment with ILs or AFs to exclude the possibility of interaction with other antibiotics. HeLa cells were grown to 70–90% confluency in T75 dishes; cells were dissociated with Trypsin/EDTA […] for 3 min and resuspended in 25 mL DMEM +10% FBS; 180 μL cells in media were added to each of the 96 wells on the plasma-treated culture plate and incubated at 37 °C overnight. Solutions of Clotrimazole plus either [HMIM]Cl and [OMIM]Cl were created and 20 μL of IL, AF, or IL + AF were added to 96-well plate and incubated at 37 °C for 24 h. Promega CellTiter-Blue Cell Viability reagent was used to evaluate cytotoxicity in accordance with the manufacturer’s guidelines. For each well, 20 μL of CellTiter-Blue was added and then the plates were incubated for either 1, 2, or 4 h and fluorescence was measured at Ex/EM 485/590 nm using a Biotek Synergy HT fluorometer Winooski, VT USA. EC50 and FIC calculations were performed using these treatments. EC50 calculations were performed using ATTB Bioquest online EC50 calculator and FIC scores were calculated as described in Doern et al..
One open question is whether addition of either of these ILs at sub-cytotoxic concentrations can improve effectiveness of AFs in fungi vs. mammalian cells. To evaluate this, we performed checkerboard assays for both [HMIM]Cl and [OMIM]Cl in the presence of Clotrimazole and calculated FIC scores as described in C. albicans checkerboard assays.

S. cerevisiae [2] = assay: Kirby–Bauer disk diffusion assay on IL-containing YPD plates; assay type: cell-based; conditions: for Zone of inhibition (ZOI) diameter: 100 = no growth on plate
Experimental: Assessment of fungal growth on YPD plates with AFs + ILs served as an indicator for the combined efficacy of treatment of ILs and AFs. YPD agar plates were made with addition of increasing concentrations of [HMIM]Cl at 0, 2.5, 6.25, and 25 mM or [OMIM]Cl at 0, 0.25, 0.625, and 2.5 mM. Plates solidified and dried on bench for 24 h before use. IN total, 400 μL of S. cerevisiae or C. albicans liquid culture at mid-log phase OD600 0.5 was spread using sterile glass beads to achieve even distribution. Following addition of culture, the plates were allowed to dry for 30 min before the addition of antifungal disks. Antifungal-infused disks were prepared using the stock solutions of solubilized antibiotics; 15 μL of each of the 4 azole antifungals at stock concentrations was pipetted onto a sterile 6 mm cellulose disk (BD). […] After plate drying was complete, sterile forceps were used to transfer the disks to the media, and the plate was grown upright in an incubator overnight at 30 °C. The following day, photographs were taken of the plates to visualize the zone of inhibition (ZOI) created by the combined treatment. Adobe Illustrator 2023 CC was used to perform digital measurements of ZOI diameters.
To assess the potential for combinatorial effects of ILs and AFs in yeast, Kirby–Bauer disk diffusion assays were performed for C. albicans and S. cerevisiae for [HMIM]Cl and [OMIM]Cl with all four AFs. […] The addition of 6 mm cellulose disks infused with equal volumes of solubilized AFs to the plates occurred after plating of C. albicans or S. cerevisiae, allowing for growth for 48 h at 23 °C, at which point the plates were evaluated for the establishment of zones of inhibition (ZOI). Digital pictures were acquired of all plates, and measurements of ZOI diameter were performed digitally as described in the Methods. […] With progressively increasing amounts of both [HMIM]Cl and [OMIM]Cl, ZOIs increased for all Afs, including Fluconazole and Itraconazole, which appear to be ineffective without IL in the Kirby–Bauer disk assay. Experiments were performed in triplicate and ZOIs were measured for all plates.
Similar experiments testing the combinatorial effects of [HMIM]Cl or [OMIM]Cl were performed on S. cerevisiae using Kirby–Bauer disk assays and quantified for changes in ZOI (Appendix Figure A1). ZOI measurements (mm) from both C. albicans and S. cerevisiae were compiled, and the averages are shown numerically as well as with shading and plotted in Figure 3. […] Finally, at intermediate concentrations of both [HMIM]Cl and [OMIM]Cl, a combinatorial effect of IL + AF was evident for all four AFs in S. cerevisiae, similar to observations in C. albicans.

[3] = 50% growth after 48 h in YPD media, OD600, read-out: MIC50

- MIC50 (S. pombe; [3]): 1 µg/mL
- MIC50 (C. albicans; [3]): 1 µg/mL
- MIC50 (S. boulardii; [3]): 1 µg/mL
- MIC50 (S. cerevisiae [1]; [3]): 1 µg/mL
SMILES: Clc1ccccc1C(c1ccccc1)(c1ccccc1)n1ccnc1 [Clotrimazole]
- Clotrimazole concentration used for FIC, alone (HeLa cells; human, 24 h): 250 mg/L
- Zone of inhibition (ZOI) diameter (S. cerevisiae [2]; [HMIM]Cl 0 mM in plate): 21.67 mm
- Zone of inhibition (ZOI) diameter (S. cerevisiae [2]; [HMIM]Cl 2.5 mM in plate): 26.67 mm
- Zone of inhibition (ZOI) diameter (S. cerevisiae [2]; [HMIM]Cl 6.25 mM in plate): 50.33 mm
- Zone of inhibition (ZOI) diameter (S. cerevisiae [2]; [HMIM]Cl 25 mM in plate): 100 mm
- Zone of inhibition (ZOI) diameter (S. cerevisiae [2]; [OMIM]Cl 0 M in plate): 21.67 mm
- Zone of inhibition (ZOI) diameter (S. cerevisiae [2]; [OMIM]Cl 0.25 mM in plate): 30 mm
- Zone of inhibition (ZOI) diameter (S. cerevisiae [2]; [OMIM]Cl 0.625 mM in plate): 47.33 mm
- Zone of inhibition (ZOI) diameter (S. cerevisiae [2]; [OMIM]Cl 2.5 mM in plate): 100 mm

SMILES: CCCCCCn1cc[n+](C)c1.[Cl-] [[HMIM]Cl, 1-hexyl-3-methylimidazolium chloride]
- MIC50 (S. pombe; 48 h): 6.25 mM
- MIC50 (C. albicans): 25 mM
- MIC50 (S. boulardii; 48 h): 6.25 mM
- MIC50 (S. cerevisiae [1]; 48 h): 6.25 mM
- IL concentration used for FIC, IL alone (HeLa cells; human, 24 h): 12.5 mM
- IL concentration used for FIC, in combination (HeLa cells; human, 24 h): 12.5 mM
- growth of S. cerevisiae on IL plate (S. cerevisiae [2]; plates with 25 mM [HMIM]Cl): complete inability to grow

- MIC50 (S. pombe; [3]): 1.25 mM
- MIC50 (C. albicans; [3]): 3.12 mM
- MIC50 (S. boulardii; [3]): 0.625 mM
- MIC50 (S. cerevisiae [1]; [3]): 0.625 mM
SMILES: CCCCCCCCn1cc[n+](C)c1.[Cl-] [[OMIM]Cl, 1-octyl-3-methylimidazolium chloride]
- IL concentration used for FIC, IL alone (HeLa cells; IL alone): 3.125 mM
- Cell Titer Blue Assay plate reading (HeLa cells; OMIM[Cl] 0.195312, Clotrimazole 0.03125 mg/mL): 553
- Cell Titer Blue Assay plate reading (HeLa cells; OMIM[Cl] 0.195312, Clotrimazole 0.0625 mg/mL): 506
- Cell Titer Blue Assay plate reading (HeLa cells; OMIM[Cl] 0.195312, Clotrimazole 0.125 mg/mL): 440
- Cell Titer Blue Assay plate reading (HeLa cells; OMIM[Cl] 0.195312, Clotrimazole 0.25 mg/mL): 135
- Cell Titer Blue Assay plate reading (HeLa cells; OMIM[Cl] 0.195312, Clotrimazole 0.5 mg/mL): 30
- Cell Titer Blue Assay plate reading (HeLa cells; OMIM[Cl] 0.195312, PBS instead of Clotrimazole): 524
- Cell Titer Blue Assay plate reading (HeLa cells; OMIM[Cl] 0.390625, Clotrimazole 0.03125 mg/mL): 343
- Cell Titer Blue Assay plate reading (HeLa cells; OMIM[Cl] 0.390625, Clotrimazole 0.0625 mg/mL): 333
- Cell Titer Blue Assay plate reading (HeLa cells; OMIM[Cl] 0.390625, Clotrimazole 0.125 mg/mL): 92
- Cell Titer Blue Assay plate reading (HeLa cells; OMIM[Cl] 0.390625, Clotrimazole 0.25 mg/mL): 161
- Cell Titer Blue Assay plate reading (HeLa cells; OMIM[Cl] 0.390625, Clotrimazole 0.5 mg/mL): 31
- Cell Titer Blue Assay plate reading (HeLa cells; OMIM[Cl] 0.390625, PBS instead of Clotrimazole): 533
- Cell Titer Blue Assay plate reading (HeLa cells; OMIM[Cl] 0.78125, Clotrimazole 0.03125 mg/mL): 128
- Cell Titer Blue Assay plate reading (HeLa cells; OMIM[Cl] 0.78125, Clotrimazole 0.0625 mg/mL): 121
- Cell Titer Blue Assay plate reading (HeLa cells; OMIM[Cl] 0.78125, Clotrimazole 0.125 mg/mL): 60
- Cell Titer Blue Assay plate reading (HeLa cells; OMIM[Cl] 0.78125, Clotrimazole 0.25 mg/mL): 66
- Cell Titer Blue Assay plate reading (HeLa cells; OMIM[Cl] 0.78125, Clotrimazole 0.5 mg/mL): 32
- Cell Titer Blue Assay plate reading (HeLa cells; OMIM[Cl] 0.78125, PBS instead of Clotrimazole): 180
- Cell Titer Blue Assay plate reading (HeLa cells; OMIM[Cl] 1.5625, Clotrimazole 0.03125 mg/mL): 126
- Cell Titer Blue Assay plate reading (HeLa cells; OMIM[Cl] 1.5625, Clotrimazole 0.0625 mg/mL): 45
- Cell Titer Blue Assay plate reading (HeLa cells; OMIM[Cl] 1.5625, Clotrimazole 0.125 mg/mL): 58
- Cell Titer Blue Assay plate reading (HeLa cells; OMIM[Cl] 1.5625, Clotrimazole 0.25 mg/mL): 33
- Cell Titer Blue Assay plate reading (HeLa cells; OMIM[Cl] 1.5625, Clotrimazole 0.5 mg/mL): 36
- Cell Titer Blue Assay plate reading (HeLa cells; OMIM[Cl] 1.5625, PBS instead of Clotrimazole): 206
- Cell Titer Blue Assay plate reading (HeLa cells; OMIM[Cl] 3.125, Clotrimazole 0.03125 mg/mL): 47
- Cell Titer Blue Assay plate reading (HeLa cells; OMIM[Cl] 3.125, Clotrimazole 0.0625 mg/mL): 37
- Cell Titer Blue Assay plate reading (HeLa cells; OMIM[Cl] 3.125, Clotrimazole 0.125 mg/mL): 36
- Cell Titer Blue Assay plate reading (HeLa cells; OMIM[Cl] 3.125, Clotrimazole 0.25 mg/mL): 36
- Cell Titer Blue Assay plate reading (HeLa cells; OMIM[Cl] 3.125, Clotrimazole 0.5 mg/mL): 38
- Cell Titer Blue Assay plate reading (HeLa cells; OMIM[Cl] 3.125, PBS instead of Clotrimazole): 47
- Cell Titer Blue Assay plate reading (HeLa cells; OMIM[Cl] 6.25, Clotrimazole 0.03125 mg/mL): 41
- Cell Titer Blue Assay plate reading (HeLa cells; OMIM[Cl] 6.25, Clotrimazole 0.0625 mg/mL): 38
- Cell Titer Blue Assay plate reading (HeLa cells; OMIM[Cl] 6.25, Clotrimazole 0.125 mg/mL): 39
- Cell Titer Blue Assay plate reading (HeLa cells; OMIM[Cl] 6.25, Clotrimazole 0.25 mg/mL): 39
- Cell Titer Blue Assay plate reading (HeLa cells; OMIM[Cl] 6.25, Clotrimazole 0.5 mg/mL): 40
- Cell Titer Blue Assay plate reading (HeLa cells; OMIM[Cl] 6.25, PBS instead of Clotrimazole): 41
- Cell Titer Blue Assay plate reading (HeLa cells; OMIM[Cl] 12.5, Clotrimazole 0.03125 mg/mL): 39
- Cell Titer Blue Assay plate reading (HeLa cells; OMIM[Cl] 12.5, Clotrimazole 0.0625 mg/mL): 39
- Cell Titer Blue Assay plate reading (HeLa cells; OMIM[Cl] 12.5, Clotrimazole 0.125 mg/mL): 38
- Cell Titer Blue Assay plate reading (HeLa cells; OMIM[Cl] 12.5, Clotrimazole 0.25 mg/mL): 37
- Cell Titer Blue Assay plate reading (HeLa cells; OMIM[Cl] 12.5, Clotrimazole 0.5 mg/mL): 40
- Cell Titer Blue Assay plate reading (HeLa cells; OMIM[Cl] 12.5, PBS instead of Clotrimazole): 38
- growth of S. cerevisiae on IL plate (S. cerevisiae [2]; plates with 2.5 mM [OMIM]Cl): complete inability to grow
